Results from patent US11382897B2, “Therapeutic combination for treatment of cerebellar ataxia” (The Regents of the University of Michigan, priority 2017, dated 2022).

Columns and labels:
[1] = Water solubility (preparation of drinking water); type: physicochemical
Experimental: (§1) SKA-31 was dissolved in drinking water at 600 μM for all studies. […] For vehicle treatment, drinking water containing 0.05% β-(hydroxypropyl)-cyclodextrin, NaOH, and sucrose was used. Water bottles were changed twice weekly. Mice were treated with water bottles beginning at 28 days of age and maintained on water bottles for the duration of the experiment.

[2] = system: ATXN1[82Q] Purkinje neurons; test: Analysis of intrinsic dendritic excitability (dendritic calcium spikes); type: cell-based, mice
[3] = both, mouse, in vivo
Experimental: as §1

[4] = system: ATXN1[82Q] Purkinje neurons; test: Whole-cell patch-clamp recordings: membrane potential and after-hyperpolarization (AHP); type: cell-based, mice
[5] = system: SCA patients; conditions: human, in vivo
[6] = system: non-firing ATXN1[82Q] Purkinje neurons; test: Cell-attached recordings of Purkinje neuron spiking in acute cerebellar slices; type: cell-based, mice; conditions: 5 weeks of age, chlorzoxazone 50 μM, baclofen 10 μM, SKA-31 10 μM, 1-EBIO 100 μM

SMILES | water solubility [1] | dendritic (hyper)excitability: threshold of injected current to elicit dendritic calcium spikes [2] | brain level [3] | plasma level [3] | duration of the AHP ([4]; SKA-31 10 μM, chlorzoxazone 50 μM and baclofen 10 μM) | effect of baclofen on dendritic excitability in the presence of TEA ([2]; TEA 1 mM, baclofen 2 μM) | effect of baclofen on dendritic excitability in the presence of U73122 ([2]; U73122 10 μM in recording pipette (phospholipase C inhibitor), baclofen 2 μM) | effect of baclofen on dendritic excitability in the presence of barium ([2]; barium 500 μM, baclofen 2 μM) | effect of baclofen on dendritic excitability with cesium in the recording pipette ([2]; cesium chloride 140 mM in the recording pipette, baclofen 2 μM) | Other comments: tolerability [5] | restoration of repetitive (tonic) spiking in non-firing Purkinje neurons [6] | membrane potential of depolarized Purkinje neurons after the agent [4]
Nc1nc2c(ccc3ccccc32)s1 [SKA-31, Naphtho[1,2-d]thiazol-2-ylamine] | not easily water-soluble | does not reduce dendritic hyperexcitability | 1.83 ± 1.30 µM | 0.03939 ± 0.00805 µM | extended the duration of the AHP |  |  |  |  |  |  | 
NCC(CC(=O)O)c1ccc(Cl)cc1 (stereo not drawn) [baclofen, Baclofen] |  | reduce dendritic hyperexcitability | 0.37735 ± 0.0585 µM | 3.06 ± 0.51 µM |  | does not block the effect of baclofen | did not prevent the effect of baclofen on dendritic excitability | did not prevent the effect of baclofen | prevents the effect of baclofen | Could not tolerate; | Neither chlorzoxazone alone nor baclofen alone consistently restores spiking | −52 mV
